Source: patent US20080233561A1, “Method for Measuring Cytopathic Effect Due to Viral Infection in Cells Using Electric Cell-Substrate Impedance Sensing” (UNIVERSITY OF LOUISVILLE RESEARCH FOUNDATION, INC., priority 2005, published 2008)

System: PR8 influenza A virus (influenza/A/PR/8/34 virus)
Format: cell-based

Cl.N [NH4Cl, ammonium chloride]
CPE in influenza-infected cells, observed with ECIS: Inhibition of CPE in influenza-infected cells
